# In patent US20250222120A1, “SYNTHESIS OF NOVEL SMALL MOLECULE CARM1 DEGRADERS, COMPOUNDS FORMED THEREBY, AND PHARMACEUTICAL COMPOSITIONS CONTAINING THEM” (Wisconsin Alumni Research Foundation, priority 2024, published 2025):
# Peptide text beside a SMILES is read from it. * marks the point of attachment. Cbz = O=C(OCc1ccccc1)*
# Target: T1, CARM1 (Homo sapiens, UniProt Q86X55)
# T1 sequence (Q86X55 1-608): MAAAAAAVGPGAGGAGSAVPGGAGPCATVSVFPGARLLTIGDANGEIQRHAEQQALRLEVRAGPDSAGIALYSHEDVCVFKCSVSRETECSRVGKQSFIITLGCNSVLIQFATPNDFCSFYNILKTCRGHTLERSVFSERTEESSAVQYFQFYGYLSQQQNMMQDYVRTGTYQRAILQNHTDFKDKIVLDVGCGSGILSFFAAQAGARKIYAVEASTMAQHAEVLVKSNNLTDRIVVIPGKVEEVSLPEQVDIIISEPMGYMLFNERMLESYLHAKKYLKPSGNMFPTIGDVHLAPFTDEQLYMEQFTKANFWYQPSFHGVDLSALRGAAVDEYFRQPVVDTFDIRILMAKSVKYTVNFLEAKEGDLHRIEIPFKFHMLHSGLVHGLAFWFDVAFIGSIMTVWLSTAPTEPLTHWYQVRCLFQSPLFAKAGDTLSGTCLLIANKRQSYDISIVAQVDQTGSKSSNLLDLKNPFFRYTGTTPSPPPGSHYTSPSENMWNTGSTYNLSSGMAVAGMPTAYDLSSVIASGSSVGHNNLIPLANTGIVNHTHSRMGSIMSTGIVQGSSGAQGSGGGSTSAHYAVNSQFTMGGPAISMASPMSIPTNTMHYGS
# Experiment: CARM1 degradation by western blot in MCF7 cells
# Type: cell-based
# Parameters: Cell lysates were collected and the CARM1 levels were detected by western blots; endogenous in cells; host or cells: MCF7
# Settings: 0.5 μM, 24 h
# Experimental: Based on the structure of TPVC3, CARM1 degraders with stable and flexible alkyl linkages 2a-e were designed and synthesized. Degrader 2b bears the same linker length as TPVC3, while 2a has one less carbon. However, we also changed the hydrolytic labile C═N double bond, which is part of the acylhydrazone motif, in TPVC3 to a C—C bond in compound 2b. This change may influence the required optimal linker length. […] Western blot assays were performed to evaluate the CARM1 degradation activity of the compounds after treating MCF7 cells with these degraders at two concentrations (0.5 and 1.0 μM) for 24 h. […] It has one less carbon atom than 2a in terms of length. […] It has the same linker length as 2d.
# The treatment dose and time were determined based on time-course and dose titration experiments (FIG. 4B-4C).
# Western Blot Assay. Cells were harvested and washed with Dulbecco's phosphate-buffered saline (PBS), then lysed with 1×RIPA lysis buffer (50 mM Tris pH 7.5, 150 mM NaCl, 1% NP-40, 0.5% sodium deoxycholate, and 0.1% sodium dodecyl sulfate) supplemented with 1 mM phenylmethylsulfonyl fluoride, 10 μg/mL aprotinin, 1 μM leupeptin, and 10 μg/mL pepstatin on ice for 20 min. The supernatant was collected after spinning down at 15000 RPM at 4 degrees Celsius for 10 min. The concentration of whole lysates was quantified using a Bradford assay. 50-75 μg of cell lysates was boiled in 4× Laemmli Loading Dye and boiled at 100 degrees Celsius for 10 min. 25 μg were run in 8% SDS-PAGE gels and transferred to nitrocellulose membranes. Blots were blocked in 5% skim milk in PBST [PBS and 0.1% Tween 20] for 45 min, then incubated with primary antibodies at 4 degrees Celsius overnight. Blots were washed in PBST for 30 min, then incubated with horseradish peroxidase-linked secondary antibodies (Jackson ImmunoResearch) for 1 hr. Afterwards, blots were washed in PBST for 15-30 min, then treated with chemiluminescent ECL reagent and imaged with the ChemiDoc Imaging System (Bio-Rad) or Azure 600 (Azure Biosystems). Expression levels of the indicated proteins were probed by the following antibodies: anti-CARM1, anti-me-BAF155, anti-me-PABP1, anti-PABP1,^7 anti-BAF155 (D7F8S, Cell Signaling Technology), anti-PRMT1 (Bethyl), anti-PRMT6 (D-5, Santa Cruz Biotechnology), anti-β-Actin (ABclonal Technology, Sigma-Aldrich), anti-Hsp90 (H-114, Santa Cruz Biotechnology).
row,Compound,CARM1 degradation activity
1,"CNCCN1CCC(c2cc(CN(C)C(=O)c3cccc(Oc4ccc(C(=O)N5CCC(CN6CCC(CN7CCN(CC(=O)N[C@H](C(=O)N8C[C@H](O)C[C@H]8C(=O)N[C@@H](C)c8ccc(-c9scnc9C)cc8)C(C)(C)C)CC7)CC6)CC5)cc4)c3)ccn2)CC1 [Compound 3c, (2S,4R)-1-((S)-3,3-dimethyl-2-(2-(4-((1-((1-(4-(3-(methyl((2-(1-(2-(methylamino)ethyl)piperidin-4-yl)pyridin-4-yl)methyl)carbamoyl)phenoxy)benzoyl)piperidin-4-yl)methyl)piperidin-4-yl)methyl)piperazin-1-yl)acetamido)butanoyl)-4-hydroxy-N—((S)-1-(4-(4-methylthiazol-5-yl)phenyl)ethyl)pyrrolidine-2-carboxamide]",significantly lower CARM1 degradation activities
2,"CNCCN1CCC(c2cc(CN(C)C(=O)c3cccc(Oc4ccc(CC(=O)N5CCC(CN6CCC(CN7CCN(CC(=O)N[C@H](C(=O)N8C[C@H](O)C[C@H]8C(=O)N[C@@H](C)c8ccc(-c9scnc9C)cc8)C(C)(C)C)CC7)CC6)CC5)cc4)c3)ccn2)CC1 [Compound 3d, (2S,4R)-1-((S)-3,3-dimethyl-2-(2-(4-((1-((1-(2-(4-(3-(methyl((2-(1-(2-(methylamino)ethyl)piperidin-4-yl)pyridin-4-yl)methyl)carbamoyl)phenoxy)phenyl)acetyl)piperidin-4-yl)methyl)piperidin-4-yl)methyl)piperazin-1-yl)acetamido)butanoyl)-4-hydroxy-N—((S)-1-(4-(4-methylthiazol-5-yl)phenyl)ethyl)pyrrolidine-2-carboxamide]",significantly lower CARM1 degradation activities

# Same assay, conditions: 0.5 and 1.0 μM, 24 h
row,Compound,"CARM1 degradation activity, alkyl-linker degraders"
1,"CNCCN1CCC(c2cc(CN(C)C(=O)c3cccc(Oc4ccc(OCC(=O)NCc5ccc(OCCCC(=O)N[C@H](C(=O)N6C[C@H](O)C[C@H]6C(=O)N[C@@H](C)c6ccc(-c7scnc7C)cc6)C(C)(C)C)cc5)cc4)c3)ccn2)CC1 [Compound 2a, (2S,4R)-1-((S)-3,3-dimethyl-2-(4-(4-((2-(4-(3-(methyl((2-(1-(2-(methylamino)ethyl)piperidin-4-yl)pyridin-4-yl)methyl)carbamoyl)phenoxy)phenoxy)acetamido)methyl)phenoxy)butanamido)butanoyl)-4-hydroxy-N—((S)-1-(4-(4-methylthiazol-5-yl)phenyl)ethyl)pyrrolidine-2-carboxamide]","2d and 2e showed stronger CARM1 degradation activities than 2a, 2b, and 2c"
2,"CNCCN1CCC(c2cc(CN(C)C(=O)c3cccc(Oc4ccc(OCC(=O)NCCc5ccc(OCCCC(=O)N[C@H](C(=O)N6C[C@H](O)C[C@H]6C(=O)N[C@@H](C)c6ccc(-c7scnc7C)cc6)C(C)(C)C)cc5)cc4)c3)ccn2)CC1 [Compound 2b, (2S,4R)-1-((S)-3,3-dimethyl-2-(4-(4-(2-(2-(4-(3-(methyl((2-(1-(2-(methylamino)ethyl)piperidin-4-yl)pyridin-4-yl)methyl)carbamoyl)phenoxy)phenoxy)acetamido)ethyl)phenoxy)butanamido)butanoyl)-4-hydroxy-N—((S)-1-(4-(4-methylthiazol-5-yl)phenyl)ethyl)pyrrolidine-2-carboxamide]","2d and 2e showed stronger CARM1 degradation activities than 2a, 2b, and 2c"
3,"CNCCN1CCC(c2cc(CN(C)C(=O)c3cccc(Oc4ccc(OCC(=O)NCCc5ccc(OCCCCC(=O)N[C@H](C(=O)N6C[C@H](O)C[C@H]6C(=O)N[C@@H](C)c6ccc(-c7scnc7C)cc6)C(C)(C)C)cc5)cc4)c3)ccn2)CC1 [Compound 2c, (2S,4R)-1-((S)-3,3-dimethyl-2-(5-(4-(2-(2-(4-(3-(methyl((2-(1-(2-(methylamino)ethyl)piperidin-4-yl)pyridin-4-yl)methyl)carbamoyl)phenoxy)phenoxy)acetamido)ethyl)phenoxy)pentanamido)butanoyl)-4-hydroxy-N—((S)-1-(4-(4-methylthiazol-5-yl)phenyl)ethyl)pyrrolidine-2-carboxamide]","2d and 2e showed stronger CARM1 degradation activities than 2a, 2b, and 2c"
4,"CNCCN1CCC(c2cc(CN(C)C(=O)c3cccc(Oc4ccc(OCC(=O)NCCc5ccc(OCCCCCC(=O)N[C@H](C(=O)N6C[C@H](O)C[C@H]6C(=O)N[C@@H](C)c6ccc(-c7scnc7C)cc6)C(C)(C)C)cc5)cc4)c3)ccn2)CC1 [Compound 2d, (2S,4R)-1-((S)-3,3-dimethyl-2-(6-(4-(2-(2-(4-(3-(methyl((2-(1-(2-(methylamino)ethyl)piperidin-4-yl)pyridin-4-yl)methyl)carbamoyl)phenoxy)phenoxy)acetamido)ethyl)phenoxy)hexanamido)butanoyl)-4-hydroxy-N—((S)-1-(4-(4-methylthiazol-5-yl)phenyl)ethyl)pyrrolidine-2-carboxamide]",stronger CARM1 degradation activities
5,"CNCCN1CCC(c2cc(CN(C)C(=O)c3cccc(Oc4ccc(OCC(=O)NCCc5ccc(OCCCCCCC(=O)N[C@H](C(=O)N6C[C@H](O)C[C@H]6C(=O)N[C@@H](C)c6ccc(-c7scnc7C)cc6)C(C)(C)C)cc5)cc4)c3)ccn2)CC1 [Compound 2e, (2S,4R)-1-((S)-3,3-dimethyl-2-(7-(4-(2-(2-(4-(3-(methyl((2-(1-(2-(methylamino)ethyl)piperidin-4-yl)pyridin-4-yl)methyl)carbamoyl)phenoxy)phenoxy)acetamido)ethyl)phenoxy)heptanamido)butanoyl)-4-hydroxy-N—((S)-1-(4-(4-methylthiazol-5-yl)phenyl)ethyl)pyrrolidine-2-carboxamide]",stronger CARM1 degradation activities

# Target: T1, CARM1
# Experiment: CARM1 degradation by western blot in MCF7 cells
# Type: cell-based
# Parameters: Cell lysates were collected and the CARM1 levels were detected by western blots; endogenous in cells; host or cells: MCF7
# Settings: MCF7 cells, 0.5 μM 3b, 24 h; 7.5 μM MG132, 20 μM VH-032, 2 μM MLN4924, 10 μM TP-064
row,Compound,Effect of competitor/inhibitor on 3b-induced CARM1 degradation
1,"CC(C)C[C@@H](C=O)NC(=O)[C@H](CC(C)C)NC(=O)[C@H](CC(C)C)NC(=O)OCc1ccccc1 [MG132, reference compound] (Cbz-Leu-Leu-Leu-aldehyde)",abrogated 3b-induced CARM1 degradation
2,"NS(=O)(=O)OC[C@@H]1C[C@@H](n2ccc3c(N[C@H]4CCc5ccccc54)ncnc32)C[C@@H]1O [MLN492437, reference compound]",abrogated 3b-induced CARM1 degradation
3,"CC(=O)N[C@H](C(=O)N1C[C@H](O)C[C@H]1C(=O)NCc1ccc(-c2scnc2C)cc1)C(C)(C)C [VH-032, reference compound]",abrogated 3b-induced CARM1 degradation
